In a flash point compilation (Sun et al. 2020) one finds flash point data, which are given here for 101 molecules.

Molecules are shown by their SMILES. Structures can show the parent of a compound that is named as a salt.

On to `COC=O` [methyl formate], for which the flash point is -32.00 °C.

Regarding `CCCCC(=O)OC` [methyl pentanoate], the flash point was 22.00 °C.

With `COS(=O)(=O)C(F)(F)F` [methyl trifluoromethanesulfonate], the flash point turned out to be 38.00 °C.

Regarding `CC1CCCCC1` [methylcyclohexane], the flash point is -4.00 °C.

In the case of `CN=C=O` [methylimino(oxo)methane], the flash point is -7.00 °C.

With `CN=C=S` [methylimino(sulfanylidene)methane], the flash point turned out to be 35.00 °C.

Regarding `CSC` [methylsulfanylmethane], the flash point is -38.00 °C.

As to `Oc1cccc2ccccc12` [naphthalen-1-ol], the flash point came out at 153.00 °C.

In the case of `Nc1ccc2ccccc2c1` [naphthalen-2-amine], the flash point was 157.00 °C.

`Oc1ccc2ccccc2c1` [naphthalen-2-ol] displayed a flash point of 153.00 °C.

As to `Nc1cccc2c(N)cccc12` [naphthalene-1,5-diamine], the flash point was 226.00 °C.

Turning to `O=[N+]([O-])c1ccccc1` [nitrobenzene], the flash point amounted to 88.00 °C.

The molecule `CC=CCCCCCC` [non-2-ene] registered a flash point of 26.00 °C.

`CCCCCCCC(C)=O` [nonan-2-one] showed a flash point of 64.00 °C.

On to `CCCCC(=O)CCCC` [nonan-5-one], for which the flash point was determined as 60.00 °C.

In turn, `CCCCCCCCCS` [nonane-1-thiol] gave a flash point of 78.00 °C.

`CCCCCCCCC` [nonane]: the flash point is 31.00 °C.

For `C=CCCCCC=C` [octa-1,7-diene], the flash point was 9.00 °C.

For `CCCCCCCCCCCCCCCCCCO` [octadecan-1-ol], the flash point stood at 200.00 °C.

The molecule `CCCCCCCCCCCCCCCCCC(=O)O` [octadecanoic acid] had a flash point of 196.00 °C.

In turn, `CCCCCCC(C)=O` [octan-2-one] came in with a flash point of 52.00 °C.

For `CCCCCCCCS` [octane-1-thiol], the flash point was 46.00 °C.

Consider `CCCCCCCCOC(=O)CCCCCCCC1OC1CCCCCCCC` (stereo unspecified) [octyl 8-(3-octyloxiran-2-yl)octanoate], for which the flash point was 217.00 °C.

In the case of `C1CCOCC1` [oxane], the flash point is -20.00 °C.

Consider `O=C1CCCCCO1` [oxepan-2-one], for which the flash point is 127.00 °C.

With `C1COC1` [oxetane], the flash point is -28.00 °C.

For `OCC1CO1` (stereo unspecified) [oxiran-2-ylmethanol], the flash point was 72.00 °C.

`CCCCCCC(C)(C)C(=O)OCC1CO1` (stereo unspecified) [oxiran-2-ylmethyl 2,2-dimethyloctanoate] gave a flash point of 129.00 °C.

In turn, `C=C(C)C(=O)OCC1CO1` (stereo unspecified) [oxiran-2-ylmethyl 2-methylprop-2-enoate] returned a flash point of 83.00 °C.

Consider `O=CC1CO1` (stereo unspecified) [oxirane-2-carbaldehyde], for which the flash point was determined as 31.00 °C.

`CCCCCCCCCCCCCCCCCCCCCCCCC` [pentacosane] had a flash point of 120.00 °C.

For `CCCCCN` [pentan-1-amine], the flash point stood at 7.00 °C.

`CCCC(C)=O` [pentan-2-one] yielded a flash point of 7.00 °C.

Turning to `CCC(=O)CC` [pentan-3-one], the flash point amounted to 13.00 °C.

`CCC(CC)OC(C)=O` [pentan-3-yl acetate] had a flash point of 33.00 °C.

The molecule `CCCCCS` [pentane-1-thiol] yielded a flash point of 18.00 °C.

`CC(=O)CC(C)=O` [pentane-2,4-dione] had a flash point of 34.00 °C.

`CCCCC#N` [pentanenitrile] gave a flash point of 41.00 °C.

Consider `CCCCC(=O)O` [pentanoic acid], for which the flash point worked out at 89.00 °C.

Molecule `CCCCCOC(=O)CCC` [pentyl butanoate] came in with a flash point of 57.00 °C.

In turn, `CCCCCON=O` [pentyl nitrite] showed a flash point of 10.00 °C.

For the molecule `c1ccc2c(c1)ccc1ccccc12` [phenanthrene], the flash point was 171.00 °C.

Molecule `Oc1ccccc1` [phenol] gave a flash point of 79.00 °C.

With `NNc1ccccc1` [phenylhydrazine], the flash point was found to be 88.00 °C.

Regarding `NCc1ccccc1` [phenylmethanamine], the flash point worked out at 76.00 °C.

In the case of `SCc1ccccc1` [phenylmethanethiol], the flash point was determined as 70.00 °C.

`c1ccc(COCc2ccccc2)cc1` [phenylmethoxymethylbenzene] came in with a flash point of 135.00 °C.

In turn, `O=C(O)c1ccccc1C(=O)O` [phthalic acid] gave a flash point of 168.00 °C.

On to `C1CCNCC1` [piperidine], for which the flash point worked out at 3.00 °C.

`C[O-].[K+]` [potassium;methanolate] gave a flash point of 11.00 °C.

In turn, `C=CC(N)=O` [prop-2-enamide] displayed a flash point of 138.00 °C.

Take `C=CC#N` [prop-2-enenitrile]: the flash point was determined as 0.00 °C.

`C=CCOC(C)=O` [prop-2-enyl acetate] showed a flash point of 22.00 °C.

As to `C#CCO` [prop-2-yn-1-ol], the flash point came out at 33.00 °C.

`C#CC(=O)O` [prop-2-ynoic acid] showed a flash point of 58.00 °C.

Turning to `CCCO` [propan-1-ol], the flash point was 25.00 °C.

Turning to `C=C(C)C(=O)OC(C)C` [propan-2-yl 2-methylprop-2-enoate], the flash point is 21.00 °C.

For `CC(=O)OC(C)C` [propan-2-yl acetate], the flash point was determined as 2.00 °C.

`CC(C)OC(=O)Cl` [propan-2-yl carbonochloridate]: the flash point was 16.00 °C.

`CC(C)C1CCCCC1` [propan-2-ylcyclohexane] showed a flash point of 36.00 °C.

`CCC=O` [propanal]: the flash point was -9.00 °C.

Take `OCC(O)CO` [propane-1,2,3-triol]: the flash point was determined as 160.00 °C.

`CC(N)CN` (stereo unspecified) [propane-1,2-diamine] gave a flash point of 33.00 °C.

For the molecule `NCCCN` [propane-1,3-diamine], the flash point came to 24.00 °C.

On to `OCCCO` [propane-1,3-diol], for which the flash point amounted to 174.00 °C.

Take `SCCCS` [propane-1,3-dithiol]: the flash point was found to be 59.00 °C.

Turning to `CCC` [propane], the flash point was -104.00 °C.

As to `N#CCC#N` [propanedinitrile], the flash point stood at 130.00 °C.

`CCC#N` [propanenitrile] yielded a flash point of 2.00 °C.

Take `CCC(=O)Cl` [propanoyl chloride]: the flash point amounted to 12.00 °C.

In the case of `Nc1cccnc1` [pyridin-3-amine], the flash point was determined as 190.00 °C.

`Nc1ccncc1` [pyridin-4-amine] registered a flash point of 164.00 °C.

`NC(=O)c1cccnc1` [pyridine-3-carboxamide] came in with a flash point of 182.00 °C.

`O=C(O)c1cccnc1` [pyridine-3-carboxylic acid] yielded a flash point of 193.00 °C.

As to `c1ccncc1` [pyridine], the flash point turned out to be 20.00 °C.

The molecule `O=C1CCCN1` [pyrrolidin-2-one] yielded a flash point of 129.00 °C.

Molecule `C1CCNC1` [pyrrolidine] came in with a flash point of 3.00 °C.

In the case of `Cc1ccc(S(=O)(=O)[N-]Cl)cc1.[Na+]` [sodium;chloro-(4-methylphenyl)sulfonylazanide], the flash point was 192.00 °C.

`O=C(O)c1ccc(C(=O)O)cc1` [terephthalic acid] had a flash point of 260.00 °C.

The molecule `CC(C)(C)OOC(=O)c1ccccc1` [tert-butyl benzenecarboperoxoate] registered a flash point of 93.00 °C.

`C=CC(=O)OC(C)(C)C` [tert-butyl prop-2-enoate] gave a flash point of 19.00 °C.

Consider `C=CCCCCCCCCCCCC` [tetradec-1-ene], for which the flash point was found to be 110.00 °C.

`CCO[Si](OCC)(OCC)OCC` [tetraethyl silicate] returned a flash point of 37.00 °C.

Take `C[CH2][Pb]([CH2]C)([CH2]C)[CH2]C` [tetraethylplumbane]: the flash point was 93.00 °C.

Take `[CH3][Pb]([CH3])([CH3])[CH3]` [tetramethylplumbane]: the flash point turned out to be 38.00 °C.

The molecule `O=S1(=O)CCCC1` [thiolane 1,1-dioxide] registered a flash point of 166.00 °C.

Consider `c1ccsc1` [thiophene], for which the flash point was -1.00 °C.

On to `ClC[Si](Cl)(Cl)Cl` [trichloro(chloromethyl)silane], for which the flash point amounted to 69.00 °C.

`C=C[Si](Cl)(Cl)Cl` [trichloro(ethenyl)silane] gave a flash point of 21.00 °C.

Turning to `CC[Si](Cl)(Cl)Cl` [trichloro(ethyl)silane], the flash point stood at 22.00 °C.

With `C[Si](Cl)(Cl)Cl` [trichloro(methyl)silane], the flash point is -9.00 °C.

`Cl[Si](Cl)(Cl)c1ccccc1` [trichloro(phenyl)silane]: the flash point was 91.00 °C.

As to `CCC[Si](Cl)(Cl)Cl` [trichloro(propyl)silane], the flash point amounted to 37.00 °C.

`C=CC(=O)OCCCCCCCCCCCCC` [tridecyl prop-2-enoate] had a flash point of 132.00 °C.

With `CCOC(=O)CC(O)(CC(=O)OCC)C(=O)OCC` [triethyl 2-hydroxypropane-1,2,3-tricarboxylate], the flash point stood at 155.00 °C.

The molecule `CCOP(=O)(OCC)OCC` [triethyl phosphate] came in with a flash point of 116.00 °C.

On to `CCOP(OCC)OCC` [triethyl phosphite], for which the flash point is 46.00 °C.

Regarding `FC(F)(F)c1ccccc1` [trifluoromethylbenzene], the flash point was 12.00 °C.

The molecule `C[Si](C)(C)O[Si](C)(O[Si](C)(C)C)O[Si](C)(C)C` [trimethyl-[methyl-bis(trimethylsilyloxy)silyl]oxysilane] came in with a flash point of 86.00 °C.

For the molecule `c1ccc(OP(Oc2ccccc2)Oc2ccccc2)cc1` [triphenyl phosphite], the flash point is 218.00 °C.

On to `O.c1cc[c]([Sn]([c]2ccccc2)[c]2ccccc2)cc1` [triphenyltin;hydrate], for which the flash point came out at 400.00 °C.
